Experimental data from PMC9774438, “Effects of Synthetic Short Cationic Antimicrobial Peptides on the Catalytic Activity of Myeloperoxidase, Reducing Its Oxidative Capacity” (Antioxidants, 2022).
“Also recorded” adds a separate entry of the source.

Tests used:
myeloperoxidase (MPO) [1] = target: T1, myeloperoxidase (MPO) (Homo sapiens, UniProt P05164); assay: MPO chlorinating activity (Celestine Blue B assay); format: biochemical; settings: 0.008–8 μM peptide, 0.8 nM MPO heme, 200 μM CB, 150 mM NaCl, 50 μM H2O2, 50 mM Na-acetate pH 5.5
T1 construct: Native myeloperoxidase (MPO) was obtained from human leukocyte extract by successive chromatography on heparin-Sepharose and phenyl-agarose; from tissue; host or cells: human leukocyte extract
Method: MPO chlorinating activity was evaluated fluorometrically using Celestine Blue B (CB) which was oxidized to fluorescent glycol (λex = 487 nm, λem = 578 nm) by taurine N-chloramine produced in the reaction of taurine with HOCl generated by MPO [39]. The assay was performed in 96-plate format. MPO was preincubated with peptides for 5 min in a volume of 100 μL, with the concentrations being: MPO, 1.6 nM heme and peptide, 16 nM–16 μM. Then, 100 μL aliquots of CB-containing mix (CB, 400 µM; H2O2, 100 µM; taurine, 4 mM; KI, 10 µM; NaCl, 300 mM; 50 mM Na-acetate buffer, pH 5.5) were added to MPO/peptide and to 100 μL of HOCl standards (0–150 μM). The fluorescence measurement was made with a CLARIOstar multimodal plate reader (BMG Labtech, Ortenberg, Germany) at 15 min after the reaction started. Fluorescence intensity detected for HOCl standards of HOCl was used for calculating the chlorinating activity as mole of HOCl per mole of MPO heme per second. To determine the type of CAMP-induced inhibition, KM and Vmax were obtained by varying substrates of MPO: NaCl in a final concentration from 25 to 300 mM, or H2O2 in a final concentration from 5 to 80 µM.
The Hannes-Wolf plots were made as ([Substrate]/V = f([Substrate]). KM was equal in magnitude to the intercept made on the abscissa axis by the approximating straight line; Vmax was calculated as a reciprocal value of the straight-line slope. The inhibition constant (Ki) for noncompetitive inhibition was calculated as follows: Ki = [I]/((Vmax − Vmax’)/Vmax’); Ki for competitive inhibition was calculated as follows: Ki = [I]/((KM’ − KM)/KM); Ki for mixed inhibition was calculated as follows: Ki = [I]/(((KM’ − KM)/KM)^2 + ((Vmax − Vmax’)/Vmax’))^2)^0.5; and Ki for uncompetitive inhibition was calculated as follows: Ki = [I]/(((KM − KM’)/KM’)^2 + ((Vmax – Vmax’)/Vmax’))^2)^0.5, where [I]—concentration of inhibitor (CAMP), KM—Michaelis constant without inhibitor, Vmax—maximal rate without inhibitor, KM’—Michaelis constant in the presence of inhibitor, Vmax’—maximal rate in the presence of inhibitor.
Chlorinating activity is a distinctive feature of MPO as compared with other peroxidases and it is an important property, enabling MPO to combat microbes. We tested whether the inhibitory effects of pept_1545 and Hm-AMP8 on peroxidase activity extend to MPO chlorinating activity. Chlorinating activity was measured using a fluorometric CB-based assay. To determine the concentration dependence of the effect of CAMPs on MPO chlorinating activity, the 0.008–8 μM concentration range (corresponding to 10–10,000 peptide molecules per heme) was used.

myeloperoxidase (MPO) [2] = target: T1, myeloperoxidase (MPO); assay: Dityrosine fluorescence detection during MPO/H2O2 reaction; format: biochemical; settings: 40 μM peptide, 0.4 μM MPO heme, 50 μM H2O2, 10 mM Na-phosphate pH 7.4, 0.2 mM DTPA, λex 315 nm
Method: Formation of dityrosine during the MPO reaction with CAMPs was monitored by fluorescence on a CM 2203 spectrofluorometer (Minsk, Belarus) with an excitation wavelength of 315 nm. Emission spectra were recorded between 350 nm and 500 nm, with the maximum being at 405–410 nm. MPO (0.4 μM) in a 1 mL cuvette was mixed with CAMP (40 μM) at pH 7.4 in 10 mM Na-phosphate buffer supplemented with 0.2 mM DTPA, and the starting emission spectrum was recorded. Succeeding spectra were taken at time intervals following the addition of 50 μM H2O2 to the continuously stirred reaction mixture.
Since dityrosine is an intensely fluorescent compound, the fluorescence method can be applied to detect its formation. MPO (0.4 µM heme) and tyrosine-containing Hm-AMP2 (40 µM) or HM-AMP8 (40 µM) were mixed in a cuvette in 10 mM Na-phosphate buffer, pH 7.4. No emission peak characteristic of dityrosine was observed. Succeeding spectra were recorded at time intervals after H2O2 (50 µM) addition. Dityrosine formation was monitored by the increase in fluorescence intensity.

[3] = 10 mM Na-phosphate pH 7.4; limits peptide/heme ratio to 45:1
myeloperoxidase (MPO) [4] = target: T1, myeloperoxidase (MPO); assay: Electrospray mass spectrometry of dityrosine cross-linked peptide dimer; format: biochemical; settings: 40 μM peptide, 0.4 μM MPO heme, 50 μM H2O2, 10 mM Na-phosphate; ESI-MS positive mode
Method: Mass spectra were acquired using an Orbitrap Q Exactive HF-X mass spectrometer equipped with HESI source in the positive ion mode (Thermo Fisher Scientific, Waltham, MA, USA). Direct infusion syringe pump sampling was carried out with a […] Hamilton syringe at a flow rate of […]. The spray voltage was set at +3.5 kV, the sheath and auxiliary gas flow rate at 5 and 1, respectively; the S-lens RF level at 65; the capillary temperature at 250 °C. The resolution was set at 240,000, the AGC target at 1E6, and the maximum injection time at 50 ms. A summary spectrum was collected over 4 min and used for calculating S/N and measuring peak intensities. Before analysis, desalting of samples was carried out using C-18 ZIP-TIP (Millipore, Billerica, MA, USA), according to the manufacturer’s instructions. The eluate was mixed with 0.1% formic acid in DI water (18 MOhm) to a volume of 100 μL. The solutions prepared were used for direct infusion.
Additional proof for dityrosine formation upon incubation of Hm-AMP2 with H2O2-activated MPO was obtained by electrospray mass spectrometry which allowed the detection of a peptide product of the molecular weight of the dityrosine cross-linked peptide dimer. Dimerization of peptides via initial formation of a tyrosyl radical results in a 2 Da decrease in the double mass of the peptide to [2M − 2H]. […]

T1 sequence (P05164 279-745 limits assumed): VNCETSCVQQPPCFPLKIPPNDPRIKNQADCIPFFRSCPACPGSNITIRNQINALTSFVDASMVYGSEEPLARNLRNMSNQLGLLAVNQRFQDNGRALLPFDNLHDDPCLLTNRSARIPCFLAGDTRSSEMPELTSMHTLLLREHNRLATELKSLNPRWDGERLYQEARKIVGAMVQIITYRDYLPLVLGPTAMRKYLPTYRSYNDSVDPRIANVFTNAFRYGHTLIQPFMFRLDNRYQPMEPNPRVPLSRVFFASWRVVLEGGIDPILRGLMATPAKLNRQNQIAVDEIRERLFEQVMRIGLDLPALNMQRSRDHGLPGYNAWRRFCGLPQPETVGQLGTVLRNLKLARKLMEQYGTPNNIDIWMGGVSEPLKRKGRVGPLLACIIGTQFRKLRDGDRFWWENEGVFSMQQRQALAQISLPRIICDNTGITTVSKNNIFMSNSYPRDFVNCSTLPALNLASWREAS
T1 sequence (P05164 165-273 limits assumed): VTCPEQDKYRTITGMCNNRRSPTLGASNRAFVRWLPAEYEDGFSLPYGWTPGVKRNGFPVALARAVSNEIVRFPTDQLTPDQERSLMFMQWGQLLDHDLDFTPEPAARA

EKRWRRLIFNYF [Hm-AMP2, synthetic cationic antimicrobial peptide …]
effect on MPO chlorinating activity (myeloperoxidase (MPO) [1]): no significant effect | dityrosine formation (fluorescence) (myeloperoxidase (MPO) [2]): time-dependent generation of dityrosine; also recorded: diY formation | solubility in phosphate buffer [3]: poor solubility | increase of [2M − 2H + 3H]3+ dimer ion signal (m/z 1152.4) vs control (myeloperoxidase (MPO) [4]): 20 fold
